What was measured:
[1] = system: DRG spheroid monocultures; assay type: cell-based, rat
[2] = system: hPSC-derived nociceptor-dorsal spinal cord cocultures; test: Evoked response field potential recording in hPSC-derived nociceptor-dorsal spinal cord cocultures; assay type: cell-based, human
Description: Generation o±3D Spheroid Cultures. Cryogenically preserved human stem-cell derived spinal cord dorsal horn (SCDH) precursor cells were a kind gift from the Randolph Ashton. Cells were rapidly thawed and diluted 1:4 in Neurobasal Medium (Thermo-Fisher Scientific, Waltham, MA). Cells were centrifuged at 300 g for 4 minutes and the supernatant was removed. Cells were then resuspended in neuronal differentiation media comprised of Neurobasal Medium supplemented with 2% v/v B27 supplement (Thermo-Fisher), 1% v/v N2 supplement (Thermo-Fisher), 1% v/v GlutaMAX (Thermo-Fisher), 20 ng/mL human nerve growth factor, 10 ng/mL recombinant human/murine/rat brain derived neurotrophic factor, 10 ng/mL recombinant human glial cell derived neurotrophic factor, 10 ng/mL recombinant human NT-3 (all growth factors from PeproTech, Cranbury, NJ, USA), 1 uM dibutyrl-cAMP (Millipore-Sigma, St. Louis, MO, USA), 10 uM Y-27632 (Abcam, Waltham, MA, USA), 10 uM DAPT (Tocris, Minneapolis, MN, USA), and 1% v/v antibiotic/antimycotic solution (Thermo-Fisher). Cells were plated at 500,000 cells/cm^2 on culture well plates coated with Matrigel (Corning) diluted at 1:100 for six days in neuronal differentiation media changed every-other-day to force terminal neuron differentiation. Cryogenically preserved human stem cell-derived nociceptors were purchased from Anatomic, Inc (Minneapolis, MN, USA). Cells were rapidly thawed, diluted 1:4 in Neurobasal Medium, centrifuged at 300 g for 4 minutes, and the supernatant was removed. Nociceptors were then resuspended in human culture growth media (identical to neuronal differentiation media but lacking DAPT and Y-27632) plated at 80,000 cells/cm^2 in well plates coated with Matrigel diluted at 1:100, allowed to adhere overnight, and washed to remove any dead cell debris. Nociceptor and terminally differentiated SCDH cell cultures were lifted by incubation in Accutase at 37° C. for 15 minutes. The cell suspensions were collected, centrifuged at 300 g for 4 minutes, the supernatant was removed, and both cell types were resuspended in culture growth media. […]

[3] = system: DRG(CHR2-GFP)-SCDH(CaMPARI-2) cocultures; test: Optogenetic DRG photostimulation-induced calcium influx in SCDH recorded by CaMPARI-2; assay type: cell-based, rat
Description: (§1) AAV1-hSyn-NES-his-CaMPARI2-WPRE-SV40 was a gift from Eric Schreiter (Addgene viral prep #101060-AAV1; http://n2t.net/addgene:101060; […]; http://n2t.net/addgene:58880; RRID:Addgene_5880). Viral particles of both types were added during spheroid formation with a MOI of 200,000. Cultures were seeded and matured for three weeks. Baseline red fluorescence was imaged with both three and ten second exposures prior to photostimulation using a Nikon AZ100 fluorescent microscope (2× magnification plus 5× or 8× digital zoom). […] Post-photostimulation red fluorescence was again imaged with methods identical to baseline imaging. The integrated pixel intensity for a region of interest encompassing each spheroid of interest was quantified in Fiji (ImageJ) and post-photostimulation intensity was normalized to pre stimulation intensity to obtain a final value for fold change in integrated pixel intensity.
(§2) The optogenetic experiments were conducted with between-samples designs. The fold change in red fluorescence before and after photostimulation was compared between control cultures and groups of cultures that received different independent treatments. […]

[4] = system: DRG monocultures; test: CaMPARI-2 recorded calcium influx in DRG monocultures (capsaicin); assay type: cell-based, rat; details: 10 μM capsaicin for five minutes prior to photostimulation, vs vehicle (0.1% DMSO)
Description: as §1, §2

[5] = system: hPSC-derived nociceptor-SCDH cocultures; assay type: cell-based, human

## N#Cc1cc2c(cc1[N+](=O)[O-])=NC(=O)C(=O)N=2.O.[Na].[Na] [CNQX, 6-Cyano-7-nitroquinoxaline-2,3-dione disodium salt hydrate]
[1]
  electrically-evoked compound action potentials (CAPs): insensitive
[2]
  amplitude of the later negative and positive-going portions of the synaptic waveform: reduced
  synaptically evoked activity in dorsal spinal cord tissue following stimulation of afferent nociceptor spheroid: blocks a large portion
[3]
  calcium influx in SCDH following optical excitation of DRG tissue: significantly reduced calcium influx

## O=C(O)CN(CCN(CC(=O)O)CC(=O)O)CC(=O)O [EDTA, ethylenediaminetetraacetic acid]
[1]
  electrically-evoked compound action potentials (CAPs): insensitive

## COc1cc(CNC(=O)CCCC/C=C/C(C)C)ccc1O [capsaicin]
[4]
  calcium influx recorded by CaMPARI-2 (fold change in red fluorescence): induced significant calcium influx

## CN1CC[C@]23c4c5ccc(O)c4O[C@H]2[C@@H](O)C=C[C@H]3[C@H]1C5.O=S(=O)(O)O [morphine, Morphine sulfate]
[2]
  late, positive-going portion of the synaptically evoked waveform: prolongs
[5]
  fully spontaneous burst firing in SCDH spheroid: increases in frequency and amplitude
  semi-spontaneous burst firing in SCDH spheroid: increased in frequency

## NC1=N[C@H](O)[C@H]2[C@H]3O[C@]4(O)O[C@@H]([C@@H](O)[C@@]2(N1)[C@@H]4O)[C@]3(O)CO [tetrodotoxin]
[1]
  electrically-evoked compound action potentials (CAPs): completely blocked

Source: patent US20240376427A1, “COMPOSITIONS AND SYSTEMS COMPRISING THREE-DIMENSIONAL NERVE CELL CULTURES AND METHODS OF USING THE SAME” (THE ADMINISTRATORS OF THE TULANE EDUCATIONAL FUND, priority 2021, published 2024)
